# Assay results from paper PMC7758046, “Novel piperazine–chalcone hybrids and related pyrazoline analogues targeting VEGFR-2 kinase; design, synthesis, molecular docking studies, and anticancer evaluation” (Journal of Enzyme Inhibition and Medicinal Chemistry, 2020).
# Columns and labels:
# Assay in all cases: NCI-60 single-dose anticancer screen
# Format in all cases: cell-based, human
# CAKI-1 (Renal cancer) = conditions: 10 µM single dose
# Method: (§1) Six compounds were selected by the NCI, according to NCI’s DTP selection guidelines, for evaluation of their anticancer activity at a single-dose of 10 µM against 60 human tumours cell lines.
# (§2) In vitro cytotoxicity was performed in NCI according to reported method.
# [1] = tested on: MDA-MB-468 (Breast cancer); conditions: 10 µM single dose
# Method: as §1, §2
# KM12 (Colon cancer) = conditions: 10 µM single dose
# Method: as §1, §2
# PC-3 (Prostate cancer) = conditions: 10 µM single dose
# Method: as §1, §2
# RXF 393 (Renal cancer) = conditions: 10 µM single dose
# Method: as §1, §2
# [2] = tested on: NCI-H460 (Non-small cell lung cancer); conditions: 10 µM single dose
# Method: as §1, §2
# SR (Leukaemia) = conditions: 10 µM single dose; for inhibition at 10 µM: Homo sapiens, read-out: cell growth inhibition
# Method: as §1, §2
# M14 (Melanoma) = conditions: 10 µM single dose
# Method: as §1, §2
# [3] = tested on: HOP-92 (Non-small cell lung cancer); conditions: 10 µM single dose; for inhibition at 10 µM: Homo sapiens, read-out: cell growth inhibition
# Method: as §1, §2
# OVCAR-4 (Ovarian cancer) = conditions: 10 µM single dose
# Method: as §1, §2
# RPMI-8226 (Leukaemia) = conditions: 10 µM single dose
# Method: as §1, §2
# DU-145 (Prostate cancer) = conditions: 10 µM single dose
# Method: as §1, §2
# SW-620 (Colon cancer) = conditions: 10 µM single dose
# Method: as §1, §2
# SF-295 (CNS cancer) = conditions: 10 µM single dose
# Method: as §1, §2
# [4] = tested on: MDA-MB-231/ATCC (Breast cancer); conditions: 10 µM single dose
# Method: as §1, §2
# T-47D (Breast cancer) = conditions: 10 µM single dose
# Method: as §1, §2
# UACC-62 (Melanoma) = conditions: 10 µM single dose
# Method: as §1, §2
# HT29 (Colon cancer) = conditions: for cell growth promotion: 10 µM single dose
# Method: as §1, §2
# 786-0 (Renal cancer) = conditions: 10 µM single dose
# Method: as §1, §2
# [5] = tested on: NCI-H522 (Non-small cell lung cancer); conditions: 10 µM single dose
# Method: as §1, §2
# OVCAR-3 (Ovarian cancer) = conditions: 10 µM single dose
# Method: as §1, §2
# HL-60(TB) (Leukaemia) = conditions: 10 µM single dose; for inhibition at 10 µM: Homo sapiens, read-out: cell growth inhibition
# Method: as §1, §2
# [6] = tested on: EKVX (Non-small cell lung cancer); conditions: 10 µM single dose
# Method: as §1, §2
# MCF7 (Breast cancer) = conditions: 10 µM single dose; for inhibition at 10 µM: Homo sapiens, read-out: cell growth inhibition
# Method: as §1, §2
# [7] = tested on: NCI-H23 (Non-small cell lung cancer); conditions: 10 µM single dose
# Method: as §1, §2
# COLO 205 (Colon cancer) = conditions: 10 µM single dose
# Method: as §1, §2
# SF-539 (CNS cancer) = conditions: 10 µM single dose
# Method: as §1, §2
# BT-549 (Breast cancer) = conditions: 10 µM single dose
# Method: as §1, §2
# CCRF-CEM (Leukaemia) = conditions: 10 µM single dose; for inhibition at 10 µM: Homo sapiens, read-out: cell growth inhibition
# Method: as §1, §2
# SK-MEL-5 (Melanoma) = conditions: 10 µM single dose
# Method: as §1, §2
# IGROV1 (Ovarian cancer) = conditions: 10 µM single dose
# Method: as §1, §2
# TK-10 (Renal cancer) = conditions: 10 µM single dose
# Method: as §1, §2
# SF-268 (CNS cancer) = conditions: 10 µM single dose
# Method: as §1, §2
# OVCAR-8 (Ovarian cancer) = conditions: 10 µM single dose
# Method: as §1, §2
# [8] = tested on: NCI-H322M (Non-small cell lung cancer); conditions: 10 µM single dose
# Method: as §1, §2
# OVCAR-5 (Ovarian cancer) = conditions: 10 µM single dose
# Method: as §1, §2
# [9] = tested on: NCI/ADR-RES (Ovarian cancer); conditions: 10 µM single dose
# Method: as §1, §2
# MALME-3M (Melanoma) = conditions: 10 µM single dose
# Method: as §1, §2
# HS 578T (Breast cancer) = conditions: 10 µM single dose
# Method: as §1, §2
# UO-31 (Renal cancer) = conditions: 10 µM single dose
# Method: as §1, §2
# SK-OV-3 (Ovarian cancer) = conditions: 10 µM single dose
# Method: as §1, §2
# A498 (Renal cancer) = conditions: 10 µM single dose
# Method: as §1, §2
# SK-MEL-2 (Melanoma) = conditions: 10 µM single dose
# Method: as §1, §2
# [10] = tested on: A549/ATCC (Non-small cell lung cancer); conditions: 10 µM single dose
# Method: as §1, §2
# [11] = tested on: NCI-H226 (Non-small cell lung cancer); conditions: 10 µM single dose
# Method: as §1, §2
# SNB-75 (CNS cancer) = conditions: 10 µM single dose
# Method: as §1, §2
# U251 (CNS cancer) = conditions: 10 µM single dose
# Method: as §1, §2
smiles,measurement,setting,value
"O=C(C=Cc1cccc(F)c1)c1ccc(N2CCNCC2)cc1 [Vd, 3-(3-Fluorophenyl)-1-(4-(piperazin-1-yl)phenyl)prop-2-en-1-one]",cell growth promotion,CAKI-1 (Renal cancer),68.63%
same,cell growth promotion,[1],94.85%
same,cell growth promotion,KM12 (Colon cancer),77.75%
same,cell growth promotion,PC-3 (Prostate cancer),66.01%
same,cell growth promotion,RXF 393 (Renal cancer),75.94%
same,cell growth promotion,[2],74.45%
same,cell growth promotion,SR (Leukaemia),55.72%
same,inhibition at 10 µM,SR (Leukaemia),44.3%
same,cell growth promotion,M14 (Melanoma),81.16%
same,cell growth promotion,[3],58.41%
same,inhibition at 10 µM,[3],41.6%
same,cell growth promotion,OVCAR-4 (Ovarian cancer),80.53%
same,cell growth promotion,RPMI-8226 (Leukaemia),76.47%
same,cell growth promotion,DU-145 (Prostate cancer),77.70%
same,cell growth promotion,SW-620 (Colon cancer),61.08%
same,cell growth promotion,SF-295 (CNS cancer),101.78%
same,cell growth promotion,[4],73.60%
same,cell growth promotion,T-47D (Breast cancer),87.54%
same,cell growth promotion,UACC-62 (Melanoma),79.23%
same,cell growth promotion,HT29 (Colon cancer),30.44%
same,inhibition at 10 µM,"HT29 (Colon cancer); Homo sapiens, HT-29, 10 µM single dose, read-out: cell growth inhibition",69.6%
same,cell growth promotion,786-0 (Renal cancer),85.24%
same,cell growth promotion,[5],71.57%
same,cell growth promotion,OVCAR-3 (Ovarian cancer),93.74%
same,cell growth promotion,HL-60(TB) (Leukaemia),60.38%
same,inhibition at 10 µM,HL-60(TB) (Leukaemia),39.2%
same,cell growth promotion,[6],95.54%
same,cell growth promotion,MCF7 (Breast cancer),51.72%
same,inhibition at 10 µM,MCF7 (Breast cancer),48.3%
same,cell growth promotion,[7],77.30%
same,cell growth promotion,COLO 205 (Colon cancer),96.91%
same,cell growth promotion,SF-539 (CNS cancer),94.49%
same,cell growth promotion,BT-549 (Breast cancer),73.16%
same,cell growth promotion,CCRF-CEM (Leukaemia),58.18%
same,inhibition at 10 µM,CCRF-CEM (Leukaemia),41.8%
same,cell growth promotion,SK-MEL-5 (Melanoma),76.85%
same,cell growth promotion,IGROV1 (Ovarian cancer),67.97%
same,cell growth promotion,TK-10 (Renal cancer),114.19%
same,cell growth promotion,SF-268 (CNS cancer),85.41%
same,cell growth promotion,OVCAR-8 (Ovarian cancer),67.16%
same,cell growth promotion,[8],75.26%
same,cell growth promotion,OVCAR-5 (Ovarian cancer),94.72%
same,cell growth promotion,[9],109.37%
same,cell growth promotion,MALME-3M (Melanoma),94.15%
same,cell growth promotion,HS 578T (Breast cancer),79.41%
same,cell growth promotion,UO-31 (Renal cancer),76.58%
same,cell growth promotion,SK-OV-3 (Ovarian cancer),79.98%
same,cell growth promotion,A498 (Renal cancer),95.14%
same,cell growth promotion,SK-MEL-2 (Melanoma),96.08%
same,cell growth promotion,[10],76.84%
same,cell growth promotion,[11],87.11%
same,cell growth promotion,SNB-75 (CNS cancer),85.44%
same,cell growth promotion,U251 (CNS cancer),72.39%
"COc1cc(C=CC(=O)c2ccc(N3CCNCC3)cc2)ccc1F [Ve, 3-(4-Fluoro-3-methoxyphenyl)-1-(4-(piperazin-1-yl)phenyl) prop-2-en-1-one]",cell growth promotion,CAKI-1 (Renal cancer),79.37%
same,cell growth promotion,[1],46.48%
same,cell growth promotion,KM12 (Colon cancer),60.47%
same,cell growth promotion,PC-3 (Prostate cancer),51.40%
same,cell growth promotion,RXF 393 (Renal cancer),101.92%
same,cell growth promotion,[2],97.07%
same,cell growth promotion,SR (Leukaemia),46.22%
same,inhibition at 10 µM,SR (Leukaemia),53.8%
same,cell growth promotion,M14 (Melanoma),78.43%
same,cell growth promotion,[3],55.00%
same,inhibition at 10 µM,[3],45%
same,cell growth promotion,OVCAR-4 (Ovarian cancer),68.87%
same,cell growth promotion,RPMI-8226 (Leukaemia),49.59%
same,cell growth promotion,DU-145 (Prostate cancer),105.61%
same,cell growth promotion,SW-620 (Colon cancer),50.69%
same,cell growth promotion,SF-295 (CNS cancer),95.92%
same,cell growth promotion,[4],94.50%
same,cell growth promotion,T-47D (Breast cancer),74.40%
same,cell growth promotion,UACC-62 (Melanoma),80.13%
same,cell growth promotion,HT29 (Colon cancer),49.97%
same,cell growth promotion,786-0 (Renal cancer),87.22%
same,cell growth promotion,[5],61.19%
same,cell growth promotion,OVCAR-3 (Ovarian cancer),70.18%
same,cell growth promotion,HL-60(TB) (Leukaemia),28.91%
same,inhibition at 10 µM,HL-60(TB) (Leukaemia),71.1%
same,cell growth promotion,[6],97.12%
same,cell growth promotion,MCF7 (Breast cancer),34.68%
same,inhibition at 10 µM,MCF7 (Breast cancer),65.3%
same,cell growth promotion,[7],92.63%
same,cell growth promotion,COLO 205 (Colon cancer),83.00%
same,cell growth promotion,SF-539 (CNS cancer),95.87%
same,cell growth promotion,BT-549 (Breast cancer),66.42%
same,cell growth promotion,CCRF-CEM (Leukaemia),22.15%
same,inhibition at 10 µM,CCRF-CEM (Leukaemia),77.8%
same,cell growth promotion,SK-MEL-5 (Melanoma),79.33%
same,cell growth promotion,IGROV1 (Ovarian cancer),59.94%
same,cell growth promotion,TK-10 (Renal cancer),101.24%
same,cell growth promotion,SF-268 (CNS cancer),94.03%
same,cell growth promotion,OVCAR-8 (Ovarian cancer),57.23%
same,cell growth promotion,[8],73.01%
same,cell growth promotion,OVCAR-5 (Ovarian cancer),121.73%
same,cell growth promotion,[9],79.31%
same,cell growth promotion,MALME-3M (Melanoma),112.40%
same,cell growth promotion,HS 578T (Breast cancer),91.26%
same,cell growth promotion,UO-31 (Renal cancer),58.35%
same,cell growth promotion,SK-OV-3 (Ovarian cancer),87.98%
same,cell growth promotion,A498 (Renal cancer),100.79%
same,cell growth promotion,SK-MEL-2 (Melanoma),85.44%
same,cell growth promotion,[10],67.25%
same,cell growth promotion,[11],86.54%
same,cell growth promotion,SNB-75 (CNS cancer),89.05%
same,cell growth promotion,U251 (CNS cancer),67.21%
